US6461997B1, “Triazole sulfones having herbicidal activity” (Monsanto Technology LLC, priority 1999, dated 2002)

How the values were obtained:
[1] = system: CHEAL (common lambsquarters); assay: Pre-emergence herbicidal activity, warm season; format: in vivo, Chenopodium album; conditions: GR80 = lowest tested rate (300, 100, 30, 10 g/ha) with 80% or greater inhibition; approx. 14 days after treating; 30/21° C.
Method in brief: (§1)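 Seeds sown in sterilised fertilised topsoil received surface-applied compound in 50:50 acetone/water, typically at 300, 100, 30 and 10 g/ha, then greenhouse-grown at 30/21° C (warm-season species) or 18/13° C (cool-season species). Percent inhibition versus untreated plants was scored at about 14 days, giving GR80; an asterisk marks activity short of 80% at the top rate.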

[2] = system: CONAR (field bindweed); assay: Pre-emergence herbicidal activity, warm season; format: in vivo, Convolvulus arvensis; conditions: GR80 = lowest tested rate (300, 100, 30, 10 g/ha) with 80% or greater inhibition; approx. 14 days after treating; 30/21° C.
Procedure: (§2) Tables 5 to 8 summarize results of tests conducted as described below to determine the pre-emergence herbicidal activity, in the form of a GR80 value, of illustrative compounds of this invention. […] Compounds of the invention were typically applied at rates of 300, 100, 30, and 10 g/ha. Where herbicidal activity was evident but 80% inhibition was not achieved at the highest rate tested, an asterisk (*) is shown in the following tables.
(§3) The pre-emergence tests were conducted by the following procedure. Topsoil was sieved to pass through a 1.27 cm screen. Fertilizer was added to the topsoil and the mixture was then sterilized by heating. The topsoil mixture was placed in a pot and compacted to a depth of 1.0 to 1.25 cm from the top of the pot. Seeds of each of several monocotyledonous and dicotyledonous annual plant species were placed on top of the soil. Additional soil was subsequently placed over the seeds to level-fill the pot. A known amount of each test compound dissolved or suspended in an appropriate organic solvent was diluted with a 50:50 mix of acetone and water and applied to the surface of the soil. After treatment the plants were placed in a greenhouse where they received 0.64 cm of overhead irrigation. All subsequent watering consisted of a light overhead mist and/or subirrigation as needed for germination and growth. Tables 5 and 6 below relate to warm season plant species which were placed after pre-emergence treatment in a greenhouse with a 30/21° C. day/night temperature regime. Tables 7 and 8 below relates to cool season plant species placed after pre-emergence treatment in a greenhouse or growth chamber with an 18/13° C. day/night temperature regime.
(§4) Approximately 14 days after planting and treating, the plants were observed and herbicidal efficacy recorded as percent inhibition by comparison with untreated plants.
(§5) The plant species usually regarded as weeds which were utilized in the tests are identified in the tables below according to the following legend, in which “d” indicates a dicotyledonous species and “m” a monocotyledonous species. All monocotyledonous species included in the tests herein are grasses.

[3] = system: POROL (common purslane); assay: Pre-emergence herbicidal activity, warm season; format: in vivo, Portulaca oleracea; conditions: GR80 = lowest tested rate (300, 100, 30, 10 g/ha) with 80% or greater inhibition; approx. 14 days after treating; 30/21° C.
Method in brief: as §1

[4] = system: ECHCG (barnyardgrass); assay: Pre-emergence herbicidal activity, warm season; format: in vivo, Echinochloa crus-galli; conditions: GR80 = lowest tested rate (300, 100, 30, 10 g/ha) with 80% or greater inhibition; approx. 14 days after treating; 30/21° C.
Method in brief: (§6)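 GR80 values derive from percent inhibition relative to untreated plants, read roughly 14 days after sowing and pre-emergence soil-surface treatment (compound in 50:50 acetone/water; rates typically 10, 30, 100, 300 g/ha). Warm-season weeds grew at 30/21° C day/night, cool-season ones at 18/13° C; an asterisk marks activity without reaching 80% at the highest rate.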

[5] = system: PANMI (wild proso millet); assay: Pre-emergence herbicidal activity, warm season; format: in vivo, Panicum miliaceum; conditions: GR80 = lowest tested rate (300, 100, 30, 10 g/ha) with 80% or greater inhibition; approx. 14 days after treating; 30/21° C.
Method in brief: (§7)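 Seeds were sown in sterilized, fertilized topsoil, covered, and the soil surface was sprayed with compound in 50:50 acetone/water at 300, 100, 30 and 10 g/ha. Pots were held at 30/21 °C day/night (PANMI, DIGSA) or 18/13 °C (ALOMY, POLCO). GR80 came from percent inhibition versus untreated plants at about 14 days.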

[6] = system: SORHA (johnsongrass (seedling)); assay: Pre-emergence herbicidal activity, warm season; format: in vivo, Sorghum halepense; conditions: GR80 = lowest tested rate (300, 100, 30, 10 g/ha) with 80% or greater inhibition; approx. 14 days after treating; 30/21° C.
Method in brief: as §6

[7] = system: SETFA (giant foxtail); assay: Pre-emergence herbicidal activity, warm season; format: in vivo, Setaria faberi; conditions: GR80 = lowest tested rate (300, 100, 30, 10 g/ha) with 80% or greater inhibition; approx. 14 days after treating; 30/21° C.
Method in brief: as §6

[8] = system: PANDI (fall panicum); assay: Pre-emergence herbicidal activity, warm season; format: in vivo, Panicum dichotomiflorum; conditions: GR80 = lowest tested rate (300, 100, 30, 10 g/ha) with 80% or greater inhibition; approx. 14 days after treating; 30/21° C.
Procedure: as §2, §3, §4, §5

[9] = system: SORVU (shattercane); assay: Pre-emergence herbicidal activity, warm season; format: in vivo, Sorghum vulgare; conditions: GR80 = lowest tested rate (300, 100, 30, 10 g/ha) with 80% or greater inhibition; approx. 14 days after treating; 30/21° C.
Method in brief: as §6

[10] = system: BRAPP (broadleaf signalgrass); assay: Pre-emergence herbicidal activity, warm season; format: in vivo, Brachiaria platyphylla; conditions: GR80 = lowest tested rate (300, 100, 30, 10 g/ha) with 80% or greater inhibition; approx. 14 days after treating; 30/21° C.
Method in brief: as §6

[11] = system: GALAP (catchweed bedstraw); assay: Pre-emergence herbicidal activity, cool season; format: in vivo, Galium aparine; conditions: lowest tested rate with 80% or greater inhibition; rates 300, 100, 30, 10 g/ha; about 14 days
Method in brief: as §1

[12] = system: POLCO (wild buckwheat); assay: Pre-emergence herbicidal activity, cool season; format: in vivo, Polygonum convolvulus; conditions: lowest tested rate with 80% or greater inhibition; rates 300, 100, 30, 10 g/ha; about 14 days
Method in brief: as §7

[13] = system: SINAR (wild mustard); assay: Pre-emergence herbicidal activity, cool season; format: in vivo, Sinapis arvensis; conditions: lowest tested rate with 80% or greater inhibition; rates 300, 100, 30, 10 g/ha; about 14 days
Method in brief: as §1

[14] = system: VERPE (creeping speedwell); assay: Pre-emergence herbicidal activity, cool season; format: in vivo, Veronica persicaria; conditions: lowest tested rate with 80% or greater inhibition; rates 300, 100, 30, 10 g/ha; about 14 days
Method in brief: as §1

[15] = system: SASKR (russian thistle); assay: Pre-emergence herbicidal activity, cool season; format: in vivo, Salsola kali; conditions: lowest tested rate with 80% or greater inhibition; rates 300, 100, 30, 10 g/ha; about 14 days
Method in brief: as §1

[16] = system: STEME (common chickweed); assay: Pre-emergence herbicidal activity, cool season; format: in vivo, Stellaria media; conditions: lowest tested rate with 80% or greater inhibition; rates 300, 100, 30, 10 g/ha; about 14 days
Method in brief: as §1

[17] = system: LAMPU (purple deadnettle); assay: Pre-emergence herbicidal activity, cool season; format: in vivo, Lamium purpureum; conditions: lowest tested rate with 80% or greater inhibition; rates 300, 100, 30, 10 g/ha; about 14 days
Method in brief: as §1

[18] = system: SETVI (green foxtail); assay: Pre-emergence herbicidal activity, cool season; format: in vivo, Setaria viridis; conditions: GR80 = lowest tested rate (300, 100, 30, 10 g/ha) with 80% or greater inhibition; approx. 14 days after treating; 18/13° C.
Method in brief: as §1

[19] = system: AVEFA (wild oat); assay: Pre-emergence herbicidal activity, cool season; format: in vivo, Avena fatua; conditions: GR80 = lowest tested rate (300, 100, 30, 10 g/ha) with 80% or greater inhibition; approx. 14 days after treating; 18/13° C.
Procedure: as §2, §3, §4, §5

[20] = system: AGSST (creeping bentgrass); assay: Pre-emergence herbicidal activity, cool season; format: in vivo, Agrostis stolonifera; conditions: GR80 = lowest tested rate (300, 100, 30, 10 g/ha) with 80% or greater inhibition; approx. 14 days after treating; 18/13° C.
Method in brief: as §1

CCSC(F)(F)S(=O)(=O)c1ncn(C(=O)N(C)C)n1 [Example 49]
100 g/ha: Pre-emergence activity (GR80) AGSST [20]
[empty]: Pre-emergence activity GR80, POLCO [12] | Pre-emergence activity GR80, SASKR [15]
300 g/ha: Pre-emergence activity (GR80) CHEAL [1] | Pre-emergence activity (GR80) CONAR [2] | Pre-emergence activity (GR80) POROL [3] | Pre-emergence activity (GR80) ECHCG [4] | Pre-emergence activity (GR80) PANMI [5] | Pre-emergence activity (GR80) SORHA [6] | Pre-emergence activity (GR80) SETFA [7] | Pre-emergence activity (GR80) PANDI [8] | Pre-emergence activity (GR80) SORVU [9] | Pre-emergence activity (GR80) BRAPP [10] | Pre-emergence activity GR80, GALAP [11] | Pre-emergence activity GR80, SINAR [13] | Pre-emergence activity GR80, VERPE [14] | Pre-emergence activity GR80, STEME [16] | Pre-emergence activity GR80, LAMPU [17] | Pre-emergence activity (GR80) SETVI [18] | Pre-emergence activity (GR80) AVEFA [19]
